Test results published in patent US6605305B2, “Plant drug for treatment of liver disease” (priority 2001, dated 2003).
Marks after values point to notes of the source that are not given here.

Columns and labels:
[1] = test system: Lipoperoxides; test: Liver lipoperoxides (MDA) after CCl4; type: in vivo, mice
Protocol: Female Balb/c mice (22-24 g) were maintained at 20° C. and a 12 hours light/dark cycle. The food and water allowed adliboti. Mice were randomly assigned to groups of 20 individuals. Twenty-four hours after the last dosing, animals were administered an oral dose of CCl4 (1%, v/v, in olive oil) at 1.0 mmol/kg. In treatment group, mice were treated intragastrically with SCS at daily dose of 50 mg/kg for 4 days. Control animals were given the vehicle (i.e. olive oil, 1 mL/kg). […]
The experiments were performed as previously described.
In the present study, the effect of SCS on lipoperoxides was examined.

[2] = test system: YAC-1; test: NK cell activity of mice (^51Cr release), YAC-1 target cells; type: in vivo; details: oral dose of 100 mg/kg
[3] = test system: Glutathione S-trasferase (GST); test: Liver GST activity in CCl4-intoxicated mice; type: in vivo
Protocol: (§1) Female Balb/c mice (22-24 g) were maintained at 20° C. and a 12 hours light/dark cycle. The food and water allowed adliboti. Mice were randomly assigned to groups of 20 individuals. Twenty-four hours after the last dosing, animals were administered an oral dose of CCl4 (1%, v/v, in olive oil) at 1.0 mmol/kg. In treatment group, mice were treated intragastrically with SCS at daily dose of 50 mg/kg for 4 days. Control animals were given the vehicle (i.e. olive oil, 1 mL/kg). Twenty-four hours after intoxication, heparinized blood samples were drawn from ether-anesthetized mice by cardiac puncture, and the animals were killed by cardiac excision thereafter.
(§2) The rats were starved overnight before decapitation. The livers were perfused in situ with ice-cold 1.15% KCl solution. Tissue homogenate was prepared by homogenizing 1 g of hepatic tissue sample in 10 mL ice-cold homogenizing buffer with two 10-secbursts of atissue disintegrator at 135,000 rpm. Hepatic mitochondrial fraction was prepared by differential centrifugation in isotonic buffer ([…], 0.1 mM EDTA, 5 mM Tris, pH 7.4).
Glutathione S-trasferase (GST) was determined. Total GST activity in the 105000 g supernatants of the liver homogenate was measured in 100 mM postassium-phosphate buffer (pH 6.5) containing 1 mM glutathione and 1 mM 1-chloro-2, 4-dinitrobenzene.

[4] = test system: Cytochrome P-450; details: rat, in vivo
[5] = test system: ethanol-induced gastric mucosal damage; test: Ethanol-induced gastric mucosal damage; type: in vivo, rats
Protocol: The experiment of animal was performed as previously described. Mucosal damage in gastrointestinal tract was induced ethanol or indomethacin administration. In ethanol-treated animals, after 24 hours of fasting, ethanol was given orally (70%, v/v, 10 ml/kg) by means of an oral gastric. Mucosal damage was assessed by measurement of areas with hemorrhagic lesion. In the indomethacin ulcer model, rats were refed for 1 hour after 24 hours of fasting. Thirty minutes later, indomethacin (15 mg/kg) was administered subcutaneously and rats were killed 24 hours later. Mucosal lesions were again measured along the greatest diameter. […] SCS administration was repeated again 6 hours after indomethacin injection.

[6] = test system: 3924A; test: DNA synthesis of cancer cells ([^3H]TdR incorporation), 3924A; type: in vivo, rats
Protocol: The method of animal and liver was described previously. Ascitric hepatoma, S180-ν, the transplantable 3924 used. After treatment with SCS (100 mg/kg), rats were injected with [^3H]-TdR (10 μc/μmole). Two hours after injection the animals were decapitated and examined. Livers and tumors were rapidly removed and blotted on filter paper. Tumors were carefully dissected free of necrotic, hemorrhagic, and nontumorous material. Tissues were minced with sharp scissors and 2 gm. DNA was prepared from the tissues. The radioactivity of the DNA was determined by liquid scintillation counting.
The incorporation of thymidine into DNA ws expressed as cpm/mg of DNA or cpm/gm of tissue.

[7] = test system: c-myc RNA; test: Inhibition of oncogene expression in ML-1 cells (northern blot), c-myc; type: cell-based, Human
Protocol: Human myeloblastic leukemic cells (ML-1) were maintained in suspension culture in RPMI 1640 medium supplemented with 7.5% heat-inactivated FBS. Cells growth and viability were assayed by hemocytometer using trypan-blue dye exclusion.
RNA was isolated by the CsCl gradient modification. RNA pellets were washed twice by reprecipitation in ethanol and quantitated by absorbency at […]. RNA analyzed by electrophoresis of 15 μg of RNA through 1.2% agarose formaldehyde gels followed by northern blot transfer to nitrocellulose.
Single-standard uniformly labeled DNA probes were prepared. Probe of c-myc was a 1.7 Kb cla-Eco RI restriction fragment containing the 3′exon region of human c-myc and probe of c-myb was 1.0 Kb myb-specific Bam HI fragment. Probes for n-ras contained DNA fragments using a modification of the PCR technique. Probes for myb, myc and n-ras were isolated. The isolated fragments were labeled to high specific activity with [α^32P]-dCTP (3000 ci/mmol).
Prehybridization of the filter was performed. The hybridization mixer contained 50,000 cpm of probe. The probes were hybridized at 58° C. in 15 mM NaCl, […] sodium citrate for 3 hours. After hybridization, they were exposed to XAR-5 film. Oncogene expression was quantitated by densitometer scanning of the autoradiography.

[8] = test system: DNA synthesis of liver; test: Liver DNA synthesis ([^3H] thymidine incorporation) in CCl4-intoxicated mice; type: in vivo; details: SCS 50 mg/kg intragastrically daily for 4 days
Protocol: as §1
[^3H] thymidine (10 μCi/100 g body weight) was injected intraperitoneally and mice were killed 2 hours after the infection. Mice were killed at 12, 24, 36, 48, 72 and 120 hours and their livers were removed.
DNA synthesis was determined by the incorporation of [^3H] thymidice into the acid-insoluble fraction. The liver was homogenized in 4 volumes of distilled water. Two ml of homogenate were added to an equal volume of 10% trichloroacetic acid (TCA) solution and centrifuged at 900 g for 10 minutes. The resultant pellet was washed with 5% TCA twice and suspended again in 2 ml of 5% TCA solution. The suspension was incubated at 90° C. for 20 minutes and centrifuged at 900 g for 10 minutes. One ml of the supernatant was put into a scintillation vial and 10 ml of a toluene-based scintillation fluid containing DPO (0.4%), POPOP (0.01%), and Triton X-100 (30%) as added. The radioactivity was counted in a Packard Tri-Carb Liquid scintillation counter. The DNA content of the supernatant was assayed by the method of using calf thymus DNA as the standard.

[9] = test system: Aminopyrine demethylase; test: Hepatic microsomal monooxygenases: aminopyrine demethylase; type: in vivo; details: rat liver microsomes, treatment group
[10] = test system: bovine aortic smooth muscle cell modified LDL; test: Cell-modified LDL oxidation (MDA); type: cell-based; details: LDL + 100 μg SCS/ml, 24 hours, 37° C.
[11] = test system: GRD; test: Hepatic GRD activity in CCl4-treated mice; type: in vivo
Protocol: as §1, §2
The experiments of animal and livers were performed as previously described. Glutathione (GSH) level was determined by an HPLC method. In the present study, the effect of SCS on GHS and GRD were examined.

COc1cc2c(c(OC)c1OC)-c1c(cc(OC)c(OC)c1OC)C[C@](C)(O)[C@@H](C)C2 [SCS, Schisandrin]
Lipoperoxides (mmol MDA/g liver protein) ([1]; 1 h): 0.70 ± 0.07 mmol MDA/g liver protein | Lipoperoxides T/C ([1]; 1 h): 87% | Lipoperoxides (mmol MDA/g liver protein) ([1]; 3 h): 0.65 ± 0.069 mmol MDA/g liver protein | Lipoperoxides T/C ([1]; 3 h): 72% | Lipoperoxides (mmol MDA/g liver protein) ([1]; 6 h): 0.60 ± 0.70 mmol MDA/g liver protein | Lipoperoxides T/C ([1]; 6 h): 55% | Lipoperoxides (mmol MDA/g liver protein) ([1]; 12 h): 0.52 ± 0.60 mmol MDA/g liver protein | Lipoperoxides T/C ([1]; 12 h): 40% | Lipoperoxides (mmol MDA/g liver protein) ([1]; 24 h): 0.50 ± 0.58 mmol MDA/g liver protein | Lipoperoxides T/C ([1]; 24 h): 22% | % Specific lysis (mean ± SEM) YAC-1 ([2]; effector/target 50:1): 45.0 ± 3.6 % | % Specific lysis (mean ± SEM) YAC-1 ([2]; effector/target 100:1): 64.0 ± 7.1% | GST activity ([3]; CCl4 + SCS, liver homogenate supernatant): 2.60 ± 0.28 μmol/mg protein | Inhibition of GST activity ([3]; versus CCl4 control): 55.5% | Cytochrome P-450 [4]: 2.80 ± 0.30 nmol/mg protein | Lesion area (mm^2) gastric antrum ([5]; SCS 10 mg/kg): 2.5 ± 0.35* mm^2 | Lesion area (mm^2) gastric antrum ([5]; SCS 25 mg/kg): 2.0 ± 0.23** mm^2 | Lesion area (mm^2) gastric antrum ([5]; SCS 50 mg/kg): 1.7 ± 0.20** mm^2 | Tissue inhibition rate (%) ([6]; 3924A t versus C): 52.6% | [^3H]TdR into DNA × 10^−3 cm/mg ([6]; 3924A t, SCS 100 mg/kg): 38.7 ± 4.8 × 10^−3 cm/mg | Inhibition (%) c-myc RNA ([7]; SCS concentration 10 ng/ml): 70.5 ± 8.5% | Inhibition (%) c-myc RNA ([7]; SCS concentration 50 ng/ml): 70.8 ± 8.9% | DNA synthesis (cpm/mg DNA) ([8]; 12 h): 6520 ± 678 cpm/mg DNA | DNA synthesis (cpm/mg DNA) ([8]; 24 h): 12305 ± 1405 cpm/mg DNA | DNA synthesis (cpm/mg DNA) ([8]; 48 h): 8910 ± 920 cpm/mg DNA | DNA synthesis (cpm/mg DNA) ([8]; 72 h): 9300 ± 940 cpm/mg DNA | Aminopyrine demethylase [9]: 180.0 ± 20 nmol HCHO/mg protein | MDA (nmol/mg protein, x ± s) [10]: 2.80 ± 0.29 nmol/mg protein | GRD ([11]; CCl4 + SCS): 50.6 ± 6.0 mU/mg protein | GRD activity T/C ([11]; treatment versus CCl4 control): 347% | GRD activity T/N ([11]; treatment versus normal group): 145%
